Measurements taken from patent US4048431A, “Alkylated derivatives of antibiotic BM123γ” (American Cyanamid Company, priority 1975, dated 1977).

Each substance was assayed on Escherichia coli US311 (assay: in vivo protection of mice against lethal Escherichia coli US311 infection (single subcutaneous dose)). Conditions: Carworth Farms CF-1 mice, about 20 gm., infected intraperitoneally with lethal dose of E. coli US311 (10^-3 TSP dilution of 5 hour TSP blood culture).
Design: species or system Escherichia coli US311 in Carworth Farms CF-1 mice
Protocol: These new substances show high in vivo antibacterial activity in mice against Escherichia coli US311 when administered by a single subcutaneous dose to groups of Carworth Farms CF-1 mice, weight about 20 gm., infected intraperitoneally with a lethal dose of this bacteria in a 10^- 3 trypticase soy broth TSP dilution of a 5 hour TSP blood culture. In Table VI below is set forth the in vivo activity of typical products of this invention (prepared from the indicated carbonyl reagents) against Escherichia coli US311 in mice. The activity is expressed in terms of the ED50 or the dose in mg./kg. of body weight required to protect 50% of the mice against E. coli.
With 1,2,2-dimethylhydroxypropyl-BM123γ the “ED50 (dose required to protect 50% of the mice against E. coli)” value was 0.18 mg./kg. of body weight. For 1,2,2-trimethylpropyl-BM123γ, the “ED50 (dose required to protect 50% of the mice against E. coli)” value was < 0.12 mg./kg. of body weight. For 1,2,3-trimethylpentyl-BM123γ, the “ED50 (dose required to protect 50% of the mice against E. coli)” value was 0.39 mg./kg. of body weight. For 1,2,4-trimethylheptyl-BM123γ, the “ED50 (dose required to protect 50% of the mice against E. coli)” value was 0.37 mg./kg. of body weight. 1,2-dimethyl-3-hydroxypropyl-BM123γ was tested, and the “ED50 (dose required to protect 50% of the mice against E. coli)” value was 0.12 mg./kg. of body weight. For 1,2-dimethylbutyl-BM123γ, the “ED50 (dose required to protect 50% of the mice against E. coli)” value was 0.12 mg./kg. of body weight. In the case of 1,2-dimethylpentyl-BM123γ, the “ED50 (dose required to protect 50% of the mice against E. coli)” value is reported as 0.18 mg./kg. of body weight. With 1,2-dimethylpropyl-BM123γ the “ED50 (dose required to protect 50% of the mice against E. coli)” value was 0.19 mg./kg. of body weight. For 1,3,3-trimethylbutyl-BM123γ, the “ED50 (dose required to protect 50% of the mice against E. coli)” value was 0.18 mg./kg. of body weight. 1,3,3-trimethylcyclopentyl-BM123γ was tested, and the “ED50 (dose required to protect 50% of the mice against E. coli)” value was 0.37 mg./kg. of body weight. For 1,3-dimethylbuten(-2-)yl-BM123γ, the “ED50 (dose required to protect 50% of the mice against E. coli)” value was 0.3 mg./kg. of body weight. In the case of 1,3-dimethylbutyl-BM123γ, the “ED50 (dose required to protect 50% of the mice against E. coli)” value is reported as < 0.12 mg./kg. of body weight. With 1,3-dimethylhexyl-BM123γ the “ED50 (dose required to protect 50% of the mice against E. coli)” value was 0.5 mg./kg. of body weight. 1,3-dimethylpentyl-BM123γ was tested, and the “ED50 (dose required to protect 50% of the mice against E. coli)” value was < 0.12 mg./kg. of body weight. In the case of 1,4-dimethylpentyl-BM123γ, the “ED50 (dose required to protect 50% of the mice against E. coli)” value is reported as 0.12 mg./kg. of body weight. In the case of 1,5-dimethylhexen(-4-)yl-BM123γ, the “ED50 (dose required to protect 50% of the mice against E. coli)” value is reported as 0.06 mg./kg. of body weight. For 1-(3-pyridyl)ethyl-BM123γ, the “ED50 (dose required to protect 50% of the mice against E. coli)” value was 0.75 mg./kg. of body weight. In the case of 1-(carbethoxymethyl)butyl-BM123γ, the “ED50 (dose required to protect 50% of the mice against E. coli)” value is reported as 0.75 mg./kg. of body weight. For 1-[5-norbornene(2)]ethyl-BM123γ, the “ED50 (dose required to protect 50% of the mice against E. coli)” value was < 0.12 mg./kg. of body weight. With “1-[(dimethoxyphosphinyl)methyl]-hexyl-BM123γ” the “ED50 (dose required to protect 50% of the mice against E. coli)” value was 0.3 mg./kg. of body weight. For 1-benzyl-4-piperidyl-BM123γ, the “ED50 (dose required to protect 50% of the mice against E. coli)” value was 0.18 mg./kg. of body weight. “1-carbomethoxy-2-carbomethoxyethyl-BM123γ” was tested, and the “ED50 (dose required to protect 50% of the mice against E. coli)” value was 0.75 mg./kg. of body weight. For 1-cyclohexylpropyl-BM123γ, the “ED50 (dose required to protect 50% of the mice against E. coli)” value was 0.37 mg./kg. of body weight. With 1-cyclopentylethyl-BM123γ the “ED50 (dose required to protect 50% of the mice against E. coli)” value was 0.18 mg./kg. of body weight. In the case of 1-cyclopropylethyl-BM123γ, the “ED50 (dose required to protect 50% of the mice against E. coli)” value is reported as 0.25 mg./kg. of body weight. With 1-ethyl-3-chloropropyl-BM123γ the “ED50 (dose required to protect 50% of the mice against E. coli)” value was 0.12 mg./kg. of body weight. In the case of 1-ethylbutyl-BM123γ, the “ED50 (dose required to protect 50% of the mice against E. coli)” value is reported as 0.39 mg./kg. of body weight. In the case of 1-ethylhexyl-BM123γ, the “ED50 (dose required to protect 50% of the mice against E. coli)” value is reported as 0.18 mg./kg. of body weight. 1-ethylnonyl-BM123γ was tested, and the “ED50 (dose required to protect 50% of the mice against E. coli)” value was 0.38 mg./kg. of body weight. In the case of 1-ethyloctyl-BM123γ, the “ED50 (dose required to protect 50% of the mice against E. coli)” value is reported as 0.25 mg./kg. of body weight. In the case of 1-ethylpentyl-BM123γ, the “ED50 (dose required to protect 50% of the mice against E. coli)” value is reported as 0.25 mg./kg. of body weight. 1-ethylpropyl-BM123γ was tested, and the “ED50 (dose required to protect 50% of the mice against E. coli)” value was 0.12 mg./kg. of body weight.

Same assay, conditions: Carworth Farms CF-1 mice, about 20 gm., infected intraperitoneally with lethal dose of E. coli US311 (10^-3 TSP dilution of 5 hour TSP blood culture), listed as 1-methyl-2,2-dimethylpropyl-BM123γ
1,2,2-trimethylpropyl-BM123γ was tested, and the “ED50 (dose required to protect 50% of the mice against E. coli)” value was 0.18 mg./kg. of body weight.
